This note sets out measurements from publication PMC4826176, “Identification of H7 as a novel peroxiredoxin I inhibitor to induce differentiation of leukemia cells” (Oncotarget, 2015).

SMILES strings stand for the structures. pIC50, pKd: −log10 of the molar value.

Assay [1] addresses T1, Prdx I (endogenous, NB4 cell lysate) (Homo sapiens, UniProt Q06830).
T1 construct: gene PRDX1; endogenous untagged protein in NB4 cell lysate, detected by Western blot
T1 sequence (Q06830 2-199): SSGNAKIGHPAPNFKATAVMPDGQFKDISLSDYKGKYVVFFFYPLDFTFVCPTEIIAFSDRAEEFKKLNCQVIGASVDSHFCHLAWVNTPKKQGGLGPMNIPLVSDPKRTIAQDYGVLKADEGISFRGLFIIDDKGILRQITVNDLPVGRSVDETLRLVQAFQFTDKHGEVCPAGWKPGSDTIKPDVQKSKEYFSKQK
In words: cellular thermal shift assay (CETSA) in lysate, Western blot. The following applies: NB4 lysate in PBS, heated 3 min at different temperatures (75.9°C for dose dependence). Format: biochemical. (Immunoblotting shows a protein as a band on a membrane.)

Assay [2] addresses T2, Prdx I (recombinant human peroxiredoxin I) (Homo sapiens, UniProt Q06830).
T2 construct: gene PRDX1; full-length, N-terminal His6 tag (pET28a), expressed in E. coli BL21, purified
T2 sequence (Q06830 2-199): T1 sequence (Q06830 2-199)
In words: peroxidase activity, Trx-Trx reductase-NADPH-coupled spectrophotometric assay. Format: biochemical.

In assay [3] the target is T2, Prdx I (recombinant human peroxiredoxin I). Put plainly: surface plasmon resonance (Biacore T200), single-cycle kinetics. The conditions noted are these: read-out: dissociation constant. Format: binding. The source says:
surface plasmon resonance (Biacore T200), single-cycle kinetics on Prdx I (recombinant human peroxiredoxin I) | H7 rapidly associated and disassociated from the immobilized Prdx I at a dissociation constant of […]
In general terms: Surface plasmon resonance follows binding to a sensor surface in real time, without labels.

The term pIC50 denotes the negative decadic logarithm of the IC50, by convention in mol/L. For `CCc1ccc(S(=O)(=O)N=C2C=CC(=O)c3ccccc32)cc1` [H7], the “cellular thermal shift assay (CETSA) in lysate, Western blot” value in assay [1] was “addition of H7 but not DMSO into the cell lysates increased the stability of Prdx I”. In assay [2], the negative-log IC50 (pIC50) was 5.11. Besides, in assay [3], the pKd is 5.80.
